Source: paper PMC8688338 (Molecular microbiology, 2021)
Where “and” joins values, the source holds several entries; their conditions need not be identical. Identical values can stand only once. Like-named read-outs stand apart in the source and are kept apart here.

Key:
[1] = system: vaginal trichomonad infection; conditions: murine model of vaginal trichomonad infection; ref Natto et al., 2021; cited from earlier work
[2] = target: T. vaginalis nucleoside transporters, Inosine (LA); test: Low affinity [3H]-inosine transport in T. vaginalis trophozoites; type: cell-based, Trichomonas vaginalis; conditions: read-out: Ki,app, inhibition of 1 µM [3H]-inosine uptake, average and SEM
[3] = target: T. vaginalis nucleoside transporters, Cytidine (HA); test: High affinity [3H]-cytidine transport in T. vaginalis trophozoites; type: cell-based, Trichomonas vaginalis; conditions: read-out: Ki,app, inhibition of […] [3H]-cytidine transport, 30 s, average and SEM
TvagENT6 = TvagENT6 (Trichomonas vaginalis, UniProt A2EMT5); test: cell-based
[4] = system: T. vaginalis nucleoside transporters, Thymidine (LA); test: Low affinity thymidine transport; type: cell-based, Trichomonas vaginalis; conditions: for EC50: Fig. 3E
[5] = system: T. vaginalis adenine transporter; test: [3H]-adenine transport in T. vaginalis trophozoites; type: cell-based, Trichomonas vaginalis
[6] = system: low affinity pyrimidine nucleobase transporter of T. vaginalis; test: [3H]-uracil transport in T. vaginalis trophozoites; type: cell-based, Trichomonas vaginalis; conditions: for inhibition of uracil transport: uridine, thymidine up to 10 mM, adenosine, inosine up to 1 mM
[7] = target: T. vaginalis nucleoside transporters, Guanosine (HA); test: [3H]-guanosine transport in T. vaginalis trophozoites; type: cell-based, Trichomonas vaginalis; conditions: read-out: Ki,app; inhibition of [3H]-guanosine transport; monophasic sigmoid curve; average and SEM
[8] = system: T. vaginalis nucleoside transporters, Adenosine (LA); test: Low affinity adenosine transport; type: cell-based, Trichomonas vaginalis; conditions: for EC50 / Ki: inhibition of 20 µM [3H]-adenosine transport; for EC50: Fig. 4; for Km: read-out: Km,app; for inhibition of transport: highest tested concentration: guanosine 250 µM, adenine 1 mM, hypoxanthine 1 mM, uracil 10 mM; for Ki: read-out: Ki,app
[9] = system: T. vaginalis nucleoside transporters; conditions: ref Harris et al., 1988; cited from earlier work
[10] = target: T. vaginalis nucleoside transporters, Cytidine (LA); test: Low affinity cytidine transport in T. vaginalis trophozoites; type: cell-based, Trichomonas vaginalis; conditions: read-out: Ki,app; inhibition of Cytidine (LA) transport; average and SEM
TvagENT3 = TvagENT3 (Trichomonas vaginalis, UniProt A2E5Q3); test: [3H]-cytidine uptake by T. brucei TbAT1-KO cells expressing TvagENT3
[11] = target: T. vaginalis nucleoside transporters, Uridine (HA); test: [3H]-uridine transport in T. vaginalis trophozoites; type: cell-based, Trichomonas vaginalis; conditions: read-out: Ki,app; inhibition of 0.5 µM [3H]-uridine transport, 30 s; average and SEM
[12] = system: T. vaginalis nucleoside transporters, Adenosine (HA); test: High affinity [3H]-adenosine transport in T. vaginalis trophozoites; type: cell-based, Trichomonas vaginalis; conditions: for Ki: read-out: Ki,app, inhibition of […] [3H]-adenosine transport, monophasic
[13] = system: T. vaginalis trophozoites; test: [3H]-guanine transport in T. vaginalis trophozoites; type: cell-based, Trichomonas vaginalis; conditions: 2 µM [3H]-guanine
[14] = system: T. vaginalis nucleoside transporters, Thymidine (HA); test: Higher affinity [3H]-thymidine transport; type: cell-based, Trichomonas vaginalis; conditions: for inhibition of transport: nucleobase at 1 mM
[15] = system: T. vaginalis trophozoites; conditions: 1 µM [3H]-hypoxanthine over 300 s, with or without 1 mM unlabelled hypoxanthine
P1 transporter = conditions: thymidine uptake by P1 transporter; ref De Koning and Jarvis, 1999; cited from earlier work
uracil transporter = type: cell-based, Trypanosoma brucei; conditions: 0.25 µM [3H]-uridine, control (empty vector) cells, 250 µM uracil
[16] = system: O=c1ccn([C@@H]2O[C@H](CO)[C@@H](O)[C@H]2O)c(=O)[nH]1; test: cells, lysate or membranes; conditions: other: single experiment, Fig. 11D inset
[17] = Lineweaver-Burk double reciprocal plot, single experiment, Fig. 3F
[18] = saturation curve, single experiment, Fig. 3E inset
[19] = single experiment, Fig. 3C inset
[20] = single experiment, Fig. 5D inset

Nc1ncnc2c1c(-c1ccc(Cl)cc1)cn2[C@@H]1O[C@H](CO)[C@@H](O)[C@H]1O [7-(4-Cl-phenyl),7-deazaadenosine]
efficacy [1]: efficacious

Nc1ncnc2c1ncn2[C@@H]1O[C@H](CO)[C@@H](O)[C@H]1O [adenosine]
Ki [2]: 6.36 ± 1.69 µM
Ki ([2]; listed as Adenosine): 6.4 ± 1.7 µM
Ki [3]: 2.18 ± 0.29 µM
Ki ([3]; listed as Adenosine): 2.2 ± 0.3 µM
Ki (TvagENT6): 47.2 ± 6.4 µM
EC50 ([4]; 1 µM [3H]-thymidine, single experiment): 89.8 µM
EC50 [5]: 85.9 µM
Ki ([5]; read-out: Ki,app, inhibition of 50 nM [3H]-adenine transport): 155 ± 48 µM
inhibition of uracil transport [6]: unable to inhibit
Ki [7]: 4.1 ± 0.9 µM
Vmax ([8]; Adenosine (LA), average and SEM): 31 ± 2 pmol(10^7 cells)^−1s^−1
EC50 ([8]; single experiment): 60.5 µM
Km ([8]; Adenosine (LA), 20 µM [3H]-adenosine, average and SEM): 59.4 ± 6.1 µM
Km ([8]; Adenosine (LA), 20 µM [3H]-adenosine, average and SEM, listed as Adenosine): 59 ± 6 µM
Km ([8]; single experiment, Fig. 4A inset): 63.5 µM
Km [9]: 3.9 µM
Ki [10]: 357 ± 32 µM
Hill slope (TvagENT3): −1.04 ± 0.07
inhibition of cytidine uptake (TvagENT3; 0.5 µM [3H]-cytidine, inhibitor at 400 µM): completely
Hill slope (TvagENT3; single experiment, Fig. 10D-F): −1.1
Ki [11]: 8.16 ± 0.59 µM
rate of transport in the presence of unlabelled permeant ([12]; 0.25 µM [3H]-adenosine + 1 mM unlabelled adenosine): 0.0091 ± 0.0085 pmol(10^7 cells)^−1s^−1
inhibition of uptake ([12]; 0.25 µM [3H]-adenosine by 1 mM unlabelled adenosine): > 99%
rate of transport ([12]; 0.25 µM [3H]-adenosine, over 60 s, uninhibited): 1.15 pmol(10^7 cells)^−1s^−1 and 1.15 ± 0.06 pmol(10^7 cells)^−1s^−1
Vmax ([12]; Adenosine (HA), average and SEM): 9.5 ± 2.4 pmol(10^7 cells)^−1s^−1
Km ([12]; read-out: Km,app, Adenosine (HA), […] [3H]-adenosine, 30 s, average and SEM): 6.2 ± 0.6 µM

Nc1nc2nc[nH]c2c(=O)[nH]1 [guanine]
rate of uptake [13]: 0.017 ± 0.002 pmol(10^7 cells)^−1s^−1 and 0.0167 ± 0.0020 pmol(10^7 cells)^−1s^−1

O=c1[nH]cnc2nc[nH]c12 [hypoxanthine]
inhibition of transport ([14]; 125 nM [3H]-thymidine): ≤ 50%
specific uptake [15]: no specific uptake
inhibition of transport ([8]; 20 µM [3H]-adenosine): ≤ 50%
Ki ([8]; average and SEM): > 1000 µM
Ki ([12]; 30 s, average and SEM): 185 ± 37 µM

Cc1cn([C@H]2C[C@H](O)[C@@H](CO)O2)c(=O)[nH]c1=O [thymidine]
rate of uptake ([4]; 1 µM [3H]-thymidine): 0.139 ± 0.008 pmol(10^7 cells)^−1s^−1
rate of uptake in the presence of unlabelled permeant ([4]; 1 µM [3H]-thymidine + 1 mM thymidine): 0.013 ± 0.0018 pmol(10^7 cells)^−1s^−1
inhibition of uptake ([4]; 1 µM [3H]-thymidine by 1 mM unlabelled thymidine): 90.6%
Vmax, low affinity component [4, 17]: 12.0 pmol(10^7 cells)^−1s^−1
Vmax ([4]; Thymidine (LA), average and SEM): 9.4 ± 2.5 pmol(10^7 cells)^−1s^−1
EC50 ([4]; read-out: EC50, higher affinity component, 1 µM [3H]-thymidine, 2-site equation, single experiment): 10.7 µM
EC50 ([4]; read-out: EC50, lower affinity component, 1 µM [3H]-thymidine, 2-site equation, single experiment): 529 µM
Km ([4]; read-out: Km, low affinity component, Lineweaver-Burk double reciprocal plot, single experiment, Fig. 3F): 340 µM
Km ([4]; read-out: Km,app, Thymidine (LA), 1 µM [3H]-thymidine, average and SEM): 470 ± 104 µM
Km [4, 18]: 394 µM
Vmax [4, 18]: 12.9 pmol(10^7 cells)^−1s^−1
inhibition of uptake ([14]; 0.125 µM [3H]-thymidine by 1 mM unlabelled thymidine): 75%
rate of uptake ([14]; 0.125 µM [3H]-thymidine, average of 4 experiments over 60 s): 0.0045 ± 0.0012 pmol(10^7 cells)^−1s^−1
Vmax, higher affinity component [14, 17]: 2.2 pmol(10^7 cells)^−1s^−1
Vmax ([14]; Thymidine (HA), average and SEM): 0.69 ± 0.37 pmol(10^7 cells)^−1s^−1
Vmax ([14]; Thymidine (HA), average and SEM, listed as Thymidine): 6.7 ± 1.8 pmol(10^7 cells)^−1s^−1
EC50 ([14]; inhibition of 0.125 µM [3H]-thymidine uptake, single experiment, Fig. 3C/D): 11.7 µM
Km ([14]; read-out: Km, higher affinity component, Lineweaver-Burk double reciprocal plot, single experiment, Fig. 3F): 23.6 µM
Km ([14]; read-out: Km,app, Thymidine (HA), 125 nM [3H]-thymidine, average and SEM): 13.2 ± 0.8 µM
Km [14, 19]: 15.1 µM
Vmax [14, 19]: 0.245 pmol(10^7 cells)^−1s^−1
inhibition of uracil transport [6]: unable to inhibit
Ki [7]: 206 ± 62 µM
EC50 ([8]; single experiment): 817 µM
Ki ([8]; average and SEM): 557 ± 135 µM
Hill slope (TvagENT3): −1.17 ± 0.15
Ki (TvagENT3): 286 ± 12 µM
inhibition at 400 µM (TvagENT3; read-out: inhibition of cytidine uptake): 62.6%
Hill slope (TvagENT3; single experiment, Fig. 10D-F): −1.1
affinity (P1 transporter): 44 µM
Ki ([12]; 30 s, average and SEM): 274 ± 45 µM

O=c1cc[nH]c(=O)[nH]1 [uracil]
inhibition of transport ([14]; 125 nM [3H]-thymidine): ≤ 50%
rate of uptake ([6]; 0.5 µM [3H]-uracil): 0.0056 ± 0.0003 pmol(10^7 cells)^−1s^−1
rate of uptake in the presence of unlabelled permeant ([6]; 0.5 µM [3H]-uracil + 1 mM unlabelled uracil): 0.0011 ± 0.0002 pmol(10^7 cells)^−1s^−1
EC50 ([6]; 0.5 µM [3H]-uracil over 20 s, single experiment, Fig. 5D): 247 µM
Vmax ([6]; 0.5 µM [3H]-uracil, 20 s, average): 1.58 ± 0.08 pmol(10^7 cells)^−1s^−1
Km ([6]; read-out: Km,app, 0.5 µM [3H]-uracil, 20 s, average): 257 ± 58 µM
Km [6, 20]: 298 µM
Vmax [6, 20]: 1.43 pmol(10^7 cells)^−1s^−1
inhibition of transport ([8]; 20 µM [3H]-adenosine): ≤ 50%
Ki ([8]; average and SEM): > 10000 µM
reduction of background uridine uptake (uracil transporter): ~ 85% and 84.7%

TvagENT6 (Trichomonas vaginalis G3)
Km [16]: 125.4 µM
